Results on 3 compounds are retold here after US6992100B2, “sPLA2 inhibitors” (Eli Lilly and Company, priority 2001, dated 2006).

Molecules are shown by their SMILES. Counter-ions that a name gives are not always drawn.

The target in series [1] is T1, recombinant human secreted phospholipase A2 (Homo sapiens, UniProt P14555).
T1 sequence (P14555 21-144): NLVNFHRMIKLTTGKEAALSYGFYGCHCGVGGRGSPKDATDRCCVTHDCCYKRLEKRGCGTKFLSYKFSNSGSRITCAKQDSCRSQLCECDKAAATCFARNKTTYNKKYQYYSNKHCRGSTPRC
Put plainly: chromogenic assay of recombinant human secreted phospholipase A2 inhibition. The settings on record: diheptanoyl thio-PC substrate, pH 7.5, 40° C. 30 minutes, absorbance at 405 nanometers, triplicate. Format: biochemical. The source says: The following chromogenic assay procedure was used to identify and evaluate inhibitors of recombinant human secreted phospholipase A2. The assay described herein has been adapted for high volume screening using 96 well microtiter plates. A general description of this assay method is found in the article, “Analysis of Human Synovial Fluid Phospholipase A2 on Short Chain Phosphatidylcholine-Mixed Micelles: Development of a Spectrophotometric Assay Suitable for a Microtiterplate Reader”, by Laure J. Reynolds, Lori L. Hughes, and Edward A. Dennis, Analytical Biochemistry, 204, pp. 190–197, 1992 (the disclosure of which is incorporated herein by reference): […]
A measured volume of racemic dipheptanoyl thio PC supplied in chloroform at a concentration of 100 mg/ml is taken to dryness and redissolved in 10 millimolar TRITON X-100™ nonionic detergent aqueous solution. […]
5. Read absorbance of wells at 405 nanometers with an automatic plate reader.
Tests were done in triplicate. […] Compounds initially found to be active were re-assayed to confirm their activity and, if sufficiently active, IC50 values were determined. […] In all cases, % inhibition measured at 405 nanometers generated by enzyme reactions containing inhibitors relative to the uninhibited control reactions was determined. […]

The term IC50 denotes the concentration needed to halve the response being measured. With `NC(=O)c1cccc2c1c1c(OCC(=O)O)c3ccccc3cc1n2Cc1ccccc1` [Example 1, (5-Benzyl-1-carbamoyl-5H-benzo[b]carbazol-11-yloxy)-acetic acid, sodium salt], the IC50 in series [1] is 38.6 µM. Still for that read-out and setting: to `NC(=O)c1cccc2c1c1c(OCC(=O)O)c3c(cc1n2Cc1ccccc1)CCCC3` [Example 2, (5-Benzyl-1-carbamoyl-7,8,9,10-tetrahydro-5H-benzo[b]carbazol-11-yloxy)-acetic acid, sodium salt] belongs 410 µM. What is called melting point is the temperature, or range, at which the solid turns liquid. `NC(=O)c1c2ccsc2nc2c1c1ccccc1n2Cc1ccccc1` [Example 3, 9-Benzyl-9H-1-thia-9,10-diaza-cyclopenta[b]fluorene-4-carboxylic acid amide]: the melting point is 242 to 245 °C.
